The text below walks through data of paper PMC4503950, “EGCG reverses human neutrophil elastase-induced migration in A549 cells by directly binding to HNE and by regulating α1-AT” (Scientific Reports, 2015).

For this test, the target named is T1, human neutrophil elastase (HNE) (Homo sapiens, UniProt P08246).
T1 construct: gene ELANE; Recombinant HNE protein (molecular mass, 25 kDa)
T1 sequence (P08246 30-247): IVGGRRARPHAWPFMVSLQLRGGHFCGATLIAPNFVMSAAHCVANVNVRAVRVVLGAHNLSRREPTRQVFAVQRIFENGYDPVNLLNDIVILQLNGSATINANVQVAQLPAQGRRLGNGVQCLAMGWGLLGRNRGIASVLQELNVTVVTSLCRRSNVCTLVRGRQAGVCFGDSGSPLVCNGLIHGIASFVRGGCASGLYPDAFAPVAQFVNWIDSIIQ
Briefly: SPR (Biacore […], HNE immobilized on CM5 chip, […] Langmuir fit); also enzyme inhibition with IC50 […]. The format is binding.

In turn, `O=C(OC1Cc2c(O)cc(O)cc2OC1c1cc(O)c(O)c(O)c1)c1cc(O)c(O)c(O)c1` (stereo not shown) [EGCG] had a dissociation constant Kd of 41.4 µM.
